{"source": "patent US20220098215A1", "about": "“DUOCARMYCIN ANALOGUES” (AUCKLAND UNISERVICES LIMITED, priority 2019, published 2022)", "key": {"[1]": {"system": "cervical carcinoma SiHa", "test": "Cytotoxicity: inhibition of proliferation, sulforhodamine B staining", "format": "cell-based, human", "settings": "for IC50: Homo sapiens", "method": "(§1) The cytotoxicity of the payloads of the invention was determined by measuring the inhibition of proliferation of two human tumour cell lines, the cervical carcinoma SiHa, and the ovarian carcinoma SKOV3. Log-phase monolayers were exposed continuously to the payloads for 5 days in 96-well plates, followed by sulforhodamine B staining. The IC50 was determined by interpolation as the drug concentration required to inhibit cell density to 50% of that of the untreated controls on the same plate. Every plate contained the reference compound seco-CBI-TMI as an internal control.\n(§2) The cytotoxicity of the payloads of the invention was determined by measuring the inhibition of proliferation of two human tumour cell lines, the cervical carcinoma SiHa, and the ovarian carcinoma SKOV3, following the general procedure described in Example 7. In the new determinations the stock solution of payload in DMSO was diluted in series prior to addition to the cell-containing wells of the 96-well plate. The cytotoxicity determinations were repeated several times (n=3-7 depending on compound and cell line) and the results are collected in Table 4."}, "[2]": {"system": "ovarian carcinoma SKOV3", "test": "Cytotoxicity: inhibition of proliferation, sulforhodamine B staining", "format": "cell-based, human", "settings": "for IC50: Homo sapiens; for differential cytotoxic potency between enantiomers 82 and 83: SKOV3", "method": "as §1, §2"}, "[3]": {"settings": "Bioorg. Med. Chem. Lett. (2010) 20, 1854; cited from earlier work"}, "[4]": {"test": "Calculated lipophilicity, ChemDraw Professional", "settings": "Table 3; difference CBI minus MBO, same side chain", "method": "The lipophilicity was calculated for the representative compounds of the invention using the ChemDraw Professional v.17.0.0 software package (Perkin Elmer Informatics Inc).\n(§3) Lipophilicity of small molecule compounds can be calculated in many different ways (reviewed for example in J. Pharm. Sci. (2009) 98, 861). To complement the data provided in Example 6 the calculated lipophilicity of several compounds of the present invention was compared to that of the seco-CBI analogues bearing the same minor groove binding side chain, using four different software packages, i.e. ChemDraw Professional (Perkin Elmer Informatics Inc) as in Example 6, ACD/log P (Advanced Chemistry Development), XLOGP3 (Shanghai Institute of Organic Chemistry), and MLOGP (Talete SRL, Milano, Italy), with the last three accessed via SwissADME (http://swissadme.ch/, Swiss Institute of Bioinformatics). The structures of the compounds are shown (where DNA binding units A, D, E and F, when attached to the 2-methylbenzoxazole alkylating subunit, represent compounds 23, 59, 66 and 74, respectively) and the calculated log P values are collected in Table 3."}, "[5]": {"test": "Calculated lipophilicity, ACD/log P", "settings": "Table 3; difference CBI minus MBO, same side chain", "text": "as §3"}, "[6]": {"test": "Aqueous stability in neutral buffer (LC-MS / HPLC)", "format": "physicochemical", "settings": "4 μM in Tris buffer (pH 7.4) containing 10% DMF at 37° C., monitored over 300-500 min", "method": "The aqueous stability of 23 and reference compound seco-CBI-TMI was investigated by LC-MS analysis. Samples containing the payloads at a concentration of 4 μM in Tris buffer (pH 7.4) containing 10% DMF at 37° C. were monitored at regular intervals over 300-500 min.\nThe aqueous stability of compounds 52, 59 and 66 was investigated by HPLC analysis. The conditions were the same as those described in Example 8, i.e. samples contained the payloads at a concentration of 4 μM in Tris buffer (pH 7.4) containing 10% DMF at 37° C. In this experiment the solutions were monitored at hourly intervals over 8 h."}, "[7]": {"settings": "SK-OV-3, Example 25, Table 4, DMSO stock diluted in series before addition, n=3-7, read-out: IC50 SKOV3 Average"}, "[8]": {"settings": "SK-OV-3, 120 h, Example 7, Table 2, continuous exposure 5 days, 96-well plates, read-out: IC50 SKOV3"}}, "note": "“Also recorded” adds a separate entry of the source. Read-outs that look alike come from different tables or passages of the source.", "data": [{"smiles": "COc1ccc2sc(C(=O)N3CC(CCl)c4c3cc(O)c3oc(C)nc43)cc2c1", "note": "(stereo not shown) [Compound 65, (8-(Chloromethyl)-4-hydroxy-2-methyl-7,8-dihydro-6H-oxazolo[4,5-e]indol-6-yl)(5-methoxybenzo[b]thiophen-2-yl)methanone]", "values": [{"measurement": "IC50", "setting": "[1]; read-out: IC50 SiHa Average", "value": 2.7, "unit": "nM"}, {"measurement": "IC50", "setting": "[2]; [7]", "value": 1.7, "unit": "nM"}]}, {"smiles": "COc1ccc(/C=C/C(=O)Nc2ccc3[nH]c(C(=O)N4CC(CCl)c5c4cc(O)c4oc(C)nc54)cc3c2)cc1", "note": "(stereo not shown) [Compound 63, (E)-N-(2-(8-(Chloromethyl)-4-hydroxy-2-methyl-7,8-dihydro-6H-oxazolo[4,5-e]indole-6-carbonyl)-1H-indol-5-yl)-3-(4-methoxyphenyl)acrylamide]", "values": [{"measurement": "IC50", "setting": "[1]; read-out: IC50 SiHa Average", "value": 0.69, "unit": "nM"}, {"measurement": "IC50", "setting": "[2]; [7]", "value": 0.61, "unit": "nM"}]}, {"smiles": "COC(=O)c1nc2c(O)cc3c(c2o1)C(CCl)CN3C(=O)c1cc2cc(OC)c(OC)c(OC)c2[nH]1", "note": "(stereo not shown) [seco-COI-TMI]", "values": [{"measurement": "cytotoxicity relative to reference compounds / CBI analogues", "setting": "[3]", "value": "several hundred fold less cytotoxic"}]}, {"smiles": "COCCOc1ccc2[nH]c(C(=O)N3CC(CCl)c4c3cc(O)c3oc(C)nc43)cc2c1", "note": "(stereo not shown) [Compound 66, (8-(Chloromethyl)-4-hydroxy-2-methyl-7,8-dihydro-6H-oxazolo[4,5-e]indol-6-yl)(5-(2-methoxyethoxy)-1H-indol-2-yl)methanone]", "values": [{"measurement": "IC50", "setting": "[1]; read-out: IC50 SiHa Average", "value": 0.2, "unit": "nM"}, {"measurement": "IC50", "setting": "[2]; [7]", "value": 0.17, "unit": "nM"}, {"measurement": "LogP ChemDraw Δ", "setting": "[4]", "value": 1.48}, {"measurement": "LogP ACD Δ", "setting": "[5]", "value": 1.67}]}, {"smiles": "COc1cc2cc(C(=O)N3C[C@H](CCl)c4c3cc(O)c3oc(C)nc43)[nH]c2c(OC)c1OC", "note": "[Compound 83, (R)-(8-(chloromethyl)-4-hydroxy-2-methyl-7,8-dihydro-6H-oxazolo[4,5-e]indol-6-yl)(5,6,7-trimethoxy-1H-indol-2-yl)methanone]", "values": [{"measurement": "differential cytotoxic potency between enantiomers 82 and 83", "setting": "[1]", "value": 93, "unit": "fold"}, {"measurement": "IC50", "setting": "[1]; read-out: IC50 SiHa Average", "value": 14, "unit": "nM"}, {"measurement": "IC50", "setting": "[2]; [7]", "value": 33, "unit": "nM"}, {"measurement": "differential cytotoxic potency between enantiomers 82 and 83", "setting": "[2]", "value": 110, "unit": "fold"}]}, {"smiles": "COc1cc2cc(C(=O)N3C[C@@H](CCl)c4c3cc(O)c3oc(C)nc43)[nH]c2c(OC)c1OC", "note": "[Compound 82, (S)-(8-(Chloromethyl)-4-hydroxy-2-methyl-7,8-dihydro-6H-oxazolo[4,5-e]indol-6-yl)(5,6,7-trimethoxy-1H-indol-2-yl)methanone]", "values": [{"measurement": "differential cytotoxic potency between enantiomers 82 and 83", "setting": "[1]", "value": 93, "unit": "fold"}, {"measurement": "IC50", "setting": "[1]; read-out: IC50 SiHa Average", "value": 0.15, "unit": "nM"}, {"measurement": "IC50", "setting": "[2]; [7]", "value": 0.3, "unit": "nM"}, {"measurement": "differential cytotoxic potency between enantiomers 82 and 83", "setting": "[2]", "value": 110, "unit": "fold"}]}, {"smiles": "COc1cc2cc(C(=O)N3CC(CCl)c4c3cc(OCc3ccccc3)c3oc(C)nc43)[nH]c2c(OC)c1OC", "note": "(stereo not shown)", "values": [{"measurement": "melting point", "value": "225 to 227", "unit": "°C"}]}, {"smiles": "COc1cc2cc(C(=O)N3CC(CCl)c4c3cc(O)c3ccccc43)[nH]c2c(OC)c1OC", "note": "(stereo not shown) [Seco-CBI-TMI, reference compound]", "values": [{"measurement": "aqueous stability (LC-MS)", "setting": "[6]", "value": "clean conversion to the cyclopropyl form (CBI-TMI), which was stable under these conditions; also recorded: prolonged stability"}, {"measurement": "IC50", "setting": "[1]; 120 h, read-out: IC50 SiHa", "value": 0.23, "unit": "nM"}, {"measurement": "IC50", "setting": "[1]; read-out: IC50 SiHa Average", "value": 0.16, "unit": "nM"}, {"measurement": "IC50", "setting": "[2]; [8]", "value": 0.58, "unit": "nM"}, {"measurement": "IC50", "setting": "[2]; [7]", "value": 0.27, "unit": "nM"}]}, {"smiles": "CC(=O)Nc1ccc2nc(C(=O)N3CC(CCl)c4c3cc(O)c3oc(C)nc43)cn2c1", "note": "(stereo not shown) [Compound 74, N-(2-(8-(Chloromethyl)-4-hydroxy-2-methyl-7,8-dihydro-6H-oxazolo[4,5-e]indole-6-carbonyl)imidazo[1,2-a]pyridin-6-yl)acetamide]", "values": [{"measurement": "IC50", "setting": "[1]; read-out: IC50 SiHa Average", "value": 13, "unit": "nM"}, {"measurement": "IC50", "setting": "[2]; [7]", "value": 16.4, "unit": "nM"}, {"measurement": "LogP ChemDraw Δ", "setting": "[4]", "value": 1.48}, {"measurement": "LogP ACD Δ", "setting": "[5]", "value": 1.66}]}, {"smiles": "Cc1nc2c3c(cc(O)c2o1)N(C(=O)OC(C)(C)C)CC3CCl", "note": "(stereo not shown)", "values": [{"measurement": "melting point", "value": "234 to 238", "unit": "°C"}]}, {"smiles": "Cc1nc2c3c(cc(OCc4ccccc4)c2o1)N(C(=O)OC(C)(C)C)CC3CCl", "note": "(stereo not shown)", "values": [{"measurement": "melting point", "value": "142 to 143", "unit": "°C"}]}, {"smiles": "COc1cc2cc(C(=O)N3CC(CCl)c4c3cc(O)c3oc(C)nc43)[nH]c2c(OC)c1OC", "note": "(stereo not shown) [Compound 23, (8-(Chloromethyl)-4-hydroxy-2-methyl-7,8-dihydro-6H-oxazolo[4,5-e]indol-6-yl)(5,6,7-trimethoxy-1H-indol-2-yl)methanone]", "values": [{"measurement": "aqueous stability (LC-MS)", "setting": "[6]", "value": "not stable under these conditions and was rapidly converted to a variety of products"}, {"measurement": "IC50", "setting": "[1]; 120 h, read-out: IC50 SiHa", "value": 0.28, "unit": "nM"}, {"measurement": "IC50", "setting": "[1]; read-out: IC50 SiHa Average", "value": 0.18, "unit": "nM"}, {"measurement": "IC50", "setting": "[2]; [8]", "value": 0.54, "unit": "nM"}, {"measurement": "IC50", "setting": "[2]; [7]", "value": 0.32, "unit": "nM"}, {"measurement": "LogP ChemDraw Δ", "setting": "[4]", "value": 1.48}, {"measurement": "LogP ACD Δ", "setting": "[5]", "value": 1.67}]}, {"smiles": "CC(=O)Nc1cnc2[nH]c(C(=O)N3CC(CCl)c4c3cc(O)c3oc(C)nc43)cc2c1", "note": "(stereo not shown) [Compound 70, N-(2-(8-(Chloromethyl)-4-hydroxy-2-methyl-7,8-dihydro-6H-oxazolo[4,5-e]indole-6-carbonyl)-1H-pyrrolo[2,3-b]pyridin-5-yl)acetamide]", "values": [{"measurement": "IC50", "setting": "[1]; read-out: IC50 SiHa Average", "value": "> 20", "unit": "nM"}, {"measurement": "IC50", "setting": "[2]; [7]", "value": "> 20", "unit": "nM"}]}, {"smiles": "Cc1nc2c3c(cc(O)c2o1)N(C(=O)c1cc2cc(NC(=O)c4cc5cc(OCCN(C)C)ccc5[nH]4)ccc2[nH]1)CC3CCl", "note": "(stereo not shown) [Compound 53, N-(2-(8-(Chloromethyl)-4-hydroxy-2-methyl-7,8-dihydro-6H-oxazolo[4,5-e]indole-6-carbonyl)-1H-indol-5-yl)-5-(2-(dimethylamino)ethoxy)-1H-indole-2-carboxamide]", "values": [{"measurement": "IC50", "setting": "[1]; 120 h, read-out: IC50 SiHa", "value": 7.2, "unit": "nM"}, {"measurement": "IC50", "setting": "[1]; read-out: IC50 SiHa Average", "value": 2.9, "unit": "nM"}, {"measurement": "IC50", "setting": "[2]; [8]", "value": 9, "unit": "nM"}, {"measurement": "IC50", "setting": "[2]; [7]", "value": 4.2, "unit": "nM"}]}, {"smiles": "COc1ccc(/C=C/C(=O)N2CC(CCl)c3c2cc(O)c2oc(C)nc32)cc1O", "note": "(stereo not shown) [Compound 59, (E)-1-(8-(Chloromethyl)-4-hydroxy-2-methyl-7,8-dihydro-6H-oxazolo[4,5-e]indol-6-yl)-3-(3-hydroxy-4-methoxyphenyl) prop-2-en-1-one]", "values": [{"measurement": "IC50", "setting": "[1]; read-out: IC50 SiHa Average", "value": 0.62, "unit": "nM"}, {"measurement": "IC50", "setting": "[2]; [7]", "value": 0.5, "unit": "nM"}, {"measurement": "LogP ChemDraw Δ", "setting": "[4]", "value": 1.48}, {"measurement": "LogP ACD Δ", "setting": "[5]", "value": 1.61}]}]}
